Melting point data for 36 molecules are collected here from patent publication US7435837B2, “Dihydrobenzofuranyl alkanamine derivatives and methods for using same” (Wyeth, priority 2003, dated 2008).

A word on the melting point: it is the temperature, or range, at which the solid turns liquid.

Counter-ions that a name gives are not always drawn.

`COc1ccc(-c2cccc3c2OC(CN)C3)cc1` (racemic) (as salt: hydrochloride) [Example 79, (±)-1-[7-(4-methoxyphenyl)-2,3-dihydro-1-benzofuran-2-yl]methanamine] displayed a melting point of 176 to 178 °C. Then `CC(C)(C)c1cccc2c1OC(CN)C2` (single isomer, unassigned; (-)) (as salt: hydrochloride) [Example 25, (−)-1-(7-tert-butyl-2,3-dihydro-1-benzofuran-2-yl)methanamine], with 178 to 180 °C; and `NCC1Cc2cccc(-c3cccc(Cl)c3)c2O1` (single isomer, unassigned; (-)) (as salt: hydrobromid) [Example 67, (−)-1-[7-(3-chlorophenyl)-2,3-dihydro-1-benzofuran-2-yl]methanamine], with 189 to 190 °C; and `NCC1Cc2c(cccc2-c2ccccc2C(F)(F)F)O1` (single isomer, unassigned; (-)) (as salt: hydrochloride) [Example 123, (−)-1-{4-[2-(trifluoromethyl)phenyl]-2,3-dihydro-1-benzofuran-2-yl}methanamine], with 203 to 206 °C. Then `NCC1Cc2cc(Cl)cc(-c3ccsc3)c2O1` (single isomer, unassigned; (-)) (as salt: hydrobromid) [Example 91, (−)-(5-chloro-7-thien-3-yl-2,3-dihydro-1-benzofuran-2-yl)methylamine], with 277 to 280 °C; and `Cc1cccc(C)c1-c1cccc2c1OC(CN)C2` (single isomer, unassigned; (-)) (as salt: hydrochloride) [Example 57, (−)-1-[7-(2,6-dimethylphenyl)-2,3-dihydro-1-benzofuran-2-yl]methanamine], with 244 to 247 °C.

The molecule `NCC1Cc2cccc(-c3ccccc3Cl)c2O1` (racemic) (as salt: hydrochloride) [Example 60, (±)-1-[7-(2-chlorophenyl)-2,3-dihydro-1-benzofuran-2-yl]methanamine] showed a melting point greater than 250 °C. Then `NCC1Cc2c(cccc2-c2ccccc2)O1` (racemic) (as salt: hydrochloride) [Example 1, (±)-1-(4-phenyl-2,3-dihydro-1-benzofuran-2-yl)methanamine], with 229 to 230 °C. Then `Cc1ccccc1-c1cccc2c1CC(CN)O2` (single isomer, unassigned; (-)) (as salt: hydrobromid) [Example 6, (−)-1-[4-(2-methylphenyl)-2,3-dihydro-1-benzofuran-2-yl]methanamine], with 231 to 233 °C; and `CC(C)(C)/C=C/c1cccc2c1OC(CN)C2` (racemic) (as salt: hydrochloride) [Example 117, (±)-1-{7-[(1E)-3,3-dimethylbut-1-enyl]-2,3-dihydro-1-benzofuran-2-yl}methanamine], with 216 to 218 °C; and `NCC1Cc2cccc(-c3c(Cl)cccc3Cl)c2O1` (racemic) (as salt: hydrochloride) [Example 140, (±)-1-[7-(2,6-dichlorophenyl)-2,3-dihydro-1-benzofuran-2-yl]methanamine], with 206 to 208 °C. Then `CNCC1Cc2cc(Cl)cc(C3CCCCC3)c2O1` (racemic) (as salt: hydrochloride) [Example 12, (±)-N-[(5-chloro-7-cyclohexyl-2,3-dihydro-1-benzofuran-2-yl)methyl]-N-methylamine], with 125 to 128 °C; and `NCC1Cc2cccc(-c3ccccc3F)c2O1` (single isomer, unassigned; (-)) (as salt: hydrochloride) [Example 52, (−)-1-[7-(2-fluorophenyl)-2,3-dihydro-1-benzofuran-2-yl]methanamine], with 224 to 225 °C. In turn, `COc1ccccc1-c1cccc2c1OC(CN)C2` (racemic) (as salt: hydrochloride) [Example 59, (±)-1-[7-(2-methoxyphenyl)-2,3-dihydro-1-benzofuran-2-yl]methanamine] came in with a melting point greater than 250 °C. Consider `NCC1Cc2cc(Cl)cc(-c3cccc(Cl)c3)c2O1` (racemic) (as salt: hydrochloride) [Example 89, (±)-1-[5-chloro-7-(3-chlorophenyl)-2,3-dihydro-1-benzofuran-2-yl]methanamine], for which the melting point was 195 °C (dec.). Then `NCC1Cc2cccc(-c3cccc(C(F)(F)F)c3)c2O1` (racemic) (as salt: hydrochloride) [Example 69, (±)-1-{7-[3-(trifluoromethyl)phenyl]-2,3-dihydro-1-benzofuran-2-yl}methanamine], with 172 to 174 °C.

`NCC1Cc2cccc(-c3ccc4ccccc4c3)c2O1` (racemic) (as salt: hydrochloride) [Example 39, (±)-1-[7-(2-naphthyl)-2,3-dihydro-1-benzofuran-2-yl]methanamine] showed a melting point of 135 to 140 °C. Then `Cc1cccc(-c2cccc3c2OC(CN)C3)c1` (racemic) (as salt: hydrochloride) [Example 41, (±)-1-[7-(3-methylphenyl)-2,3-dihydro-1-benzofuran-2-yl]methanamine], with > 210 °C (dec.). Then `Cc1c(Cl)cc(C(C)C)c2c1CC(CN)O2` (racemic) (as salt: hydrochloride) [Example 21, (±)-1-(5-chloro-7-isopropyl-4-methyl-2,3-dihydro-1-benzofuran-2-yl)methanamine], with > 225 °C (dec.); and `NCC1Cc2cccc(-c3ccc(F)cc3)c2O1` (single isomer, unassigned; (-)) (as salt: hydrobromid) [Example 75, (−)-1-[7-(4-fluorophenyl)-2,3-dihydro-1-benzofuran-2-yl]methanamine], with 208 to 210 °C. Then `NCC1Cc2cccc(-c3c(Cl)cc(Cl)cc3Cl)c2O1` (racemic) (as salt: hydrochloride) [Example 166, (±)-{[7-(2,4,6-trichlorophenyl)-2,3-dihydro-1-benzofuran-2-yl]methyl}amine], with greater than 225 °C; and `NCC1Cc2cccc(-c3ccc(F)cc3)c2O1` (single isomer, unassigned; (+)) (as salt: hydrobromid) [Example 74, (+)-1-[7-(4-fluorophenyl)-2,3-dihydro-1-benzofuran-2-yl]methanamine], with 207 to 208 °C; and `NCCC1Cc2cc(F)cc(-c3c(Cl)cccc3Cl)c2O1` (racemic) (as salt: hydrochloride) [Example 553, (±)-{2-[7-(2,6-dichlorophenyl)-5-fluoro-2,3-dihydro-1-benzofuran-2-yl]ethyl}amine], with 212 to 213 °C. `NCC1Cc2c(F)c(F)cc(-c3ccccc3)c2O1` (racemic) (as salt: hydrochloride) [Example 109, (±)-(4,5-difluoro-7-phenyl-2,3-dihydro-1-benzofuran-2-yl)methylamine]: the melting point was greater than 240 °C. Then `COc1ccc2c(c1)OC(CN)C2` (racemic) (as salt: hydrochloride) [Example 30, (±)-1-(6-methoxy-2,3-dihydro-1-benzofuran-2-yl)methanamine], with greater than 220 °C; and `CC(C)(C)CCc1cccc2c1OC(CN)C2` (racemic) (as salt: hydrochloride) [Example 118, (±)-1-[7-(3,3-dimethylbutyl)-2,3-dihydro-1-benzofuran-2-yl]methanamine], with 158 to 160 °C. Molecule `Cc1cccc(-c2cc(Cl)cc3c2OC(CN)C3)c1` (racemic) (as salt: hydrochloride) [Example 88, (±)-1-[5-chloro-7-(3-methylphenyl)-2,3-dihydro-1-benzofuran-2-yl]methanamine] had a melting point of 268 to 271 °C. Then `NCC1Cc2cc(F)cc(-c3ccccc3)c2O1` (racemic) (as salt: hydrochloride) [Example 103, (±)-1-(5-fluoro-7-phenyl-2,3-dihydro-1-benzofuran-2-yl)methanamine], with 255 to 260 °C; and `NCC1Cc2cccc(-c3ccccc3C(F)(F)F)c2O1` (racemic) (as salt: hydrochloride) [Example 53, (±)-1-{7-[2-(trifluoromethyl)phenyl]-2,3-dihydro-1-benzofuran-2-yl}methanamine], with 204 to 205 °C; and `NCC1Cc2cccc(-c3cccc(Cl)c3)c2O1` (racemic) (as salt: hydrochloride) [Example 65, (±)-1-[7-(3-chlorophenyl)-2,3-dihydro-1-benzofuran-2-yl]methanamine], with 150 to 154 °C. Then `NCC1Cc2cccc(C3CCCC3)c2O1` (single isomer, unassigned; (-)) (as salt: hydrobromid) [Example 9, (−)-(7-cyclopentyl-2,3-dihydro-1-benzofuran-2-yl)methylamine], with 208 to 211 °C; and `NCC1Cc2cccc(-c3cc(Cl)cc(Cl)c3)c2O1` (racemic) (as salt: hydrochloride) [Example 35, (±)-1-[7-(3,5-dichlorophenyl)-2,3-dihydro-1-benzofuran-2-yl]methanamine], with 165 to 168 °C.

On to `Cc1cccc(C)c1-c1cccc2c1CC(CN)O2` (racemic) (as salt: hydrochloride) [Example 125, (±)-1-[4-(2,6-dimethylphenyl)-2,3-dihydro-1-benzofuran-2-yl]methanamine], for which the melting point lay within 254 to 256 °C.

In the case of `NCC1Cc2c(cccc2-c2ccccc2)O1` (single isomer, unassigned; (+)) (as salt: hydrobromid) [Example 2, (+)-1-(4-phenyl-2,3-dihydro-1-benzofuran-2-yl)methanamine], the melting point was in the range of 225 to 226 °C. Then `CC1(CN)Cc2cc(Cl)cc(-c3ccccc3)c2O1` (racemic) (as salt: hydrochloride) [Example 112, (±)-1-(5-chloro-2-methyl-7-phenyl-2,3-dihydro-1-benzofuran-2-yl)methanamine], with 222 to 225 °C.

In the case of `NCC1Cc2cccc(-c3ccccc3F)c2O1` (single isomer, unassigned; (+)) (as salt: hydrochloride) [Example 51, (+)-1-[7-(2-fluorophenyl)-2,3-dihydro-1-benzofuran-2-yl]methanamine], the melting point lay in the range of 227 to 228 °C.
